Experimental data reported in BindingDB's records for patent US20230391758 (Merck Sharp & Dohme, 2023).

Target: T1, Ceramide glucosyltransferase (Homo sapiens, UniProt Q16739)
T1 sequence (Q16739 whole entry): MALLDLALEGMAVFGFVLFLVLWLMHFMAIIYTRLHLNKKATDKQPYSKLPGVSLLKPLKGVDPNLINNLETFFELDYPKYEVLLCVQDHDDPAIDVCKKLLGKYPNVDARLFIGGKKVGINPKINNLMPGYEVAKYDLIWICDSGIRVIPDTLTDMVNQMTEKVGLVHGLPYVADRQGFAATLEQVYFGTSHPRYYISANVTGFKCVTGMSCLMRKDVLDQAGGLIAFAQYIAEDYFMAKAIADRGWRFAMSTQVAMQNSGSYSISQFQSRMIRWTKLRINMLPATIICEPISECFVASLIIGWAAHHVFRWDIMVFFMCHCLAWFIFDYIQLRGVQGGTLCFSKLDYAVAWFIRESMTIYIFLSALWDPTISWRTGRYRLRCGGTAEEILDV
Assay: UDP-Glo Glucosylceramide Synthase Biochemical Assay
Experimental: Using Promega's UDP-Glo™ Glycosyltransferase assay kit (Promega Corporation, Madison, WI, USA (Promega)), GCS activity was indirectly measured by detecting the amount of UDP produced. An aliquot of GCS enzyme (1.5 μg crude golgi preparation, total protein) and titrated test compound were aliquoted to each well and incubated for 30 minutes at room temperature. Substrate mixture was prepared by mixing C6 ceramide (Avanti Polar Lipids, Alabaster, AL USA (Avanti)) (micelles prepared at 0.6 mM in 0.6 mM DOPC) and UDP-glucose (20 μ.M; Promega), at concentrations equivalent to 2×Km, in assay buffer (25 mM HEPES (pH 7.5), 50 mM KCl, 5 mM MgCl2). An equivalent volume of substrate mixture was then added to each well. Following a 20 h incubation at room temperature to allow for GCS turnover of substrate, an equal volume of UDP detection reagent (Promega) was added to each well and incubated for an additional 75 minutes at room temperature to simultaneously convert the accumulated UDP product into ATP and generate light in a luciferase reaction.

- EC50: 1.8 nM
Structure (SMILES): CCCOc1ccccc1-c1cccc2cc(C(=O)Nc3cccnc3)oc12 [US20230391758, Compound 10]
